Reference: the supplement of paper PMC11208160

Experiment: recombinant barcode read abundance after kanamycin selection (control-corrected) (log10(CPM+1)); higher = more efficient recombination; sequences stand for … in AGTGCAGAGAAAATCGGCCAGTTTTCTCTGCCTGCAGTCCGCATGCCGT…AGATTTATGCAGCGGACTGCCTTTCTCCCAAAGTGATAAACCGGACAGTATCATGGACCGGTTTTCCCGGTAATCCGTATTTGCAAGGTTGGTTTCACT; site = the 11-nt target
Description: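 Pooled E. coli target-specificity screen for the IS621 bridge recombinase. Each library plasmid pairs an 11-nt target (CT core) with a bridge RNA whose target-binding loop (9-nt LTG + 4-nt RTG) is reprogrammed; the rest of the 177-nt WT IS621 bridge RNA scaffold is fixed. The plasmid is co-electroporated with a WT donor plasmid; recombinase is induced with 0.1 mM IPTG and recombinants are selected on kanamycin. Recombinant barcodes are sequenced, converted to CPM, averaged over two biological replicates and corrected by the unselected control CPM. Molecule = full bridge RNA written as DNA: LTG = specificity nt 1-9, RTG = reverse complement of specificity nt 8-11, in the WT scaffold.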
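Further: IS621 recombinase and bridge RNA in Escherichia coli cells.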

Sequence	recombinant barcode read abundance (log10)
GGCCGGTCTTGGGTTCTAACCTGTTGCCT (site GGCCGGTCTAG)	1.78
CTAAGGGCTTGGGTTCTAACCTGTTGCTG (site CTAAGGGCTCA)	0.772
CGACTTACTTGGGTTCTAACCTGTTGCAT (site ACGGGCTCTGA)	0.103
GGGTCCACTTGGGTTCTAACCTGTTGCTT (site GGGTCCACTAC)	0.139
TTGAGGACTTGGGTTCTAACCTGTTGCCT (site CTGAGGACTAG)	0.146
GTGTGTTCTTGGGTTCTAACCTGTTGCCA (site GTGTGTTCTTG)	0.336
TATTCTCCTTGGGTTCTAACCTGTTGCGT (site TATTCTCCTAT)	0.0406
GAAGACGCTTGGGTTCTAACCTGTTGCCT (site GAAGTCGCTAG)	0.126
ACACTAGCTTGGGTTCTAACCTGTTGCTG (site ACAATAGCTCA)	0.313
GCGCGGCCTTGGGTTCTAACCTGTTGCTT (site GCACGCCCTAA)	0.0904
AGGATCCCTTGGGTTCTAACCTGTTGCAG (site AGGATCCCTCT)	2.31
GCCTCGCCTTGGGTTCTAACCTGTTGCAG (site GCCACGCCTCT)	0.341
GATACTACTTGGGTTCTAACCTGTTGCAG (site GATACTACTCT)	0.17
CATCCATCTTGGGTTCTAACCTGTTGCAT (site TCGAGGCCTTA)	0.328
CCGAATCCTTGGGTTCTAACCTGTTGCCT (site CCGAATCCTAG)	0.355
CGACATACTTGGGTTCTAACCTGTTGCGT (site GGACATGCTAC)	0.0511
AATAACCCTTGGGTTCTAACCTGTTGCCT (site AATAACCCTAG)	1.2
ATAACAGCTTGGGTTCTAACCTGTTGCCT (site ATAATAGCTAG)	0.0968
TGTCTCCCTTGGGTTCTAACCTGTTGCGT (site GAAGAGGCTTG)	0.154
GAGCGCTCTTGGGTTCTAACCTGTTGCTG (site GAGCGCTCTTA)	0.0132
GGCACTCCTTGGGTTCTAACCTGTTGCCT (site GGCATTCCTAG)	0.171

Sequence	recombinant barcode read abundance (log10)
CAACGGCCTTGGGTTCTAACCTGTTGCCT (site CAACGGCCTAG)	0.796
CTAGACTCTTGGGTTCTAACCTGTTGCAC (site CTAGACTCTGT)	2.77
GCTCGTCCTTGGGTTCTAACCTGTTGCAT (site GCTGGACCTAT)	0.0399
TGTGAGCCTTGGGTTCTAACCTGTTGCGA (site CTGCGCTCTAT)	0.0373
GAGGCAACTTGGGTTCTAACCTGTTGCTT (site GAGGCAACTAA)	0.0561
GTCTTCTCTTGGGTTCTAACCTGTTGCTT (site GTCTTCTCTAA)	0.487
CTACGAACTTGGGTTCTAACCTGTTGCGG (site TGGACCTCTTG)	0.181
CAAGCACCTTGGGTTCTAACCTGTTGCTT (site CAACCACCTAA)	0.0852
TCGCTACCTTGGGTTCTAACCTGTTGCCT (site TCGCTACCTAG)	0.109
CGGGACACTTGGGTTCTAACCTGTTGCGG (site CGGCACACTCC)	0.143
GGCACGACTTGGGTTCTAACCTGTTGCCT (site GGCACCACTAG)	0.221
GCTCGTCCTTGGGTTCTAACCTGTTGCAT (site GCTCGTCCTAT)	1.03
TAGGATACTTGGGTTCTAACCTGTTGCAA (site TAGGATACTGT)	0.0992
GGGGTTCCTTGGGTTCTAACCTGTTGCGT (site GGGGTTCCTAC)	3.32
TAGGTCGCTTGGGTTCTAACCTGTTGCAT (site TAGATCGCTCT)	0.171
TAGCCTACTTGGGTTCTAACCTGTTGCGT (site TAGCCTACTAC)	0.581
TAGGATACTTGGGTTCTAACCTGTTGCAA (site TAGGATACTTT)	1.98
TTAAGCTCTTGGGTTCTAACCTGTTGCCT (site TTAAGCTCTAG)	1.43
CCGAGAGCTTGGGTTCTAACCTGTTGCCT (site CAGAGAGCTAG)	0.0908
TCTAAGTCTTGGGTTCTAACCTGTTGCCT (site TCTAAGTCTAG)	0.134
